Results: patent US9187496B2 (priority 2009, dated 2015)
Where two headings read alike, the source gives them in different places.

Key:
[1] = system: HCV genotype 2a-specific NS5A gene within the 1b-replicon; experiment: Luciferase replicon assay, NS5A-intergenotypic stable cell line genotype 2a; format: cell-based; details: read-out: EC50 2a
[2] = Cytotoxicity evaluation in luciferase replicon cells (Cell Titer 96 AQueous One); format: cell-based, human; details: human; Table 1B, cellular viability
Experimental: (§1) For cytotoxicity evaluation, H1a-luc or Zluc cells were treated with compounds as described above and cellular viability was monitored using the Cell Titer 96 AQueous One Solution Cell Proliferation Assay (Promega). Plates were then read at 490 nm in a Victor^3V 1420 multilabel counter (Perkin Elmer) and CC50 concentrations were determined using Microsoft Excel and XLfit 4.1 software.

[3] = system: HCV genotype 1b Conl strain subgenomic luciferase replicon (Zluc); experiment: Luciferase replicon assay, genotype 1b; format: cell-based; details: read-out: EC50 1b
Outline: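 Huh-7 cells carrying the genotype 1b Con1 subgenomic luciferase–neo replicon (Zluc), seeded at 7.5×10^3 cells/well, got ten 5-fold compound dilutions 3 h after plating and were incubated 72 h at 37 °C. Replication was read as ONE-Glo luciferase luminescence. EC50 came from dose-response curve fits.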

[4] = system: HCV genotype 4a-specific NS5A gene within the 1b-replicon; experiment: Luciferase replicon assay, NS5A-intergenotypic stable cell line genotype 4a; format: cell-based; details: read-out: EC50 4a
[5] = Cytotoxicity evaluation in GS4.1 cells (Cell Titer 96 AQueous One); format: cell-based, human; details: human, cellular viability
Experimental: For cytotoxicity evaluation, GS4.1 cells were treated with compounds as described above and cellular viability was monitored using the Cell Titer 96 AQueous One Solution Cell Proliferation Assay (Promega). CC50 values were determined from the % cytotoxicity versus concentration data with Tecan Magellan software as described above.

[6] = system: HCV genotype 1a H77 strain (H1a-luc replicon / 1a-H77NS5a intergenotypic replicon); experiment: Luciferase replicon assay, genotype 1a; format: cell-based; details: Hepatitis C virus, read-out: EC50 1a, genotype 1a
Text: To generate the 1a-H77NS5a intergenotypic plasmid, dual cut sites were inserted into the ZS11-luciferase genotype 1b backbone that would bracket the NS5a region almost in its entirety. Using PCR and 1a-H77 specific primers also containing the corresponding restriction enzyme sites, the NS5a gene was amplified from the 1a-H77 replicon. The ZS11-luciferase genotype 1b backbone and the genotype 1a NS5a PCR products were restriction enzyme digested and then ligated using standard molecular cloning techniques. The newly constructed plasmid contains the genotype 1a-specific NS5a gene where as the backbone remains 1b as described herein.
These new intergenotypic plasmids were used to establish stable cell lines. RNA was generated from the NS5A intergenotypic plasmids and used in conjunction with a lipofectin reagent to transfect a cured Huh7 cell line. Transfected cells were selected for with G418. After selection has occurred the stable cell lines were propagated, tested for luciferase activity, and RT-PCR with genotype specific primers (either 1a, 2a, 3a, or 4a). Stable cell lines containing the intergenotypic replicon were then fully sequenced and analysed for proper expression of NS3, NS5A and NS5B proteins.
Drug titration analysis was performed using the luciferase replicon assay described herein.
The HCV luciferase replicon assay measures the ability of a test compound to inhibit HCV replication in cell culture after 3 days of treatment in a human hepatoma cell line (Huh-7) bearing a HCV replicon containing a luciferase-neomycin phosphotransferase fusion gene. The inhibition of HCV replication was measured by quantification of luciferase protein expression. Briefly, Huh-7 cells containing either the HCV genotype 1a H77 strain or genotype 1b Conl strain subgenomic luciferase replicon (H1a-luc or Zluc, respectively) were grown in DMEM containing glucose, L-glutamine and sodium pyruvate, 10% fetal bovine serum (FBS), 100 IU/mL penicillin, 100 μg/mL streptomycin, 2 mM GlutaMAX, non-essential amino acids and 0.25 (H1a-luc) or 0.5 (Zluc) mg/mL G418. GlutaMAX was obtained from Invitrogen, Corp.; all other media reagents were obtained from Mediatech, Inc. For dose-response testing, the cells were seeded in 96-well plates at 1×10^4 (H1a-luc) or 7.5×10^3 (Zluc) cells/well in a volume of 50 μL, and incubated at 37° C./5% CO2. Three hours after plating, 50 μL of ten 5-fold serial dilutions of compound were added, and cell cultures were incubated at 37° C./5% CO2 for 72 hours. In all cases, Huh-7 cells lacking the HCV replicon served as negative control. To assess luciferase expression, the media/compound was removed from the plates and ONE-glo Luciferase assay reagent (Promega) was added to each well. The assay plates were shaken for 3 minutes at room temperature and luciferase activity for each well was measured with a 1 sec read time on the Victor^3V multilabel counter using a 700 nm cut-off filter (Perkin Elmer). EC50 values were calculated from dose response curves from the resulting best-fit equations determined by Microsoft Excel and XLfit 4.1 software.

[7] = system: Huh-7 cells containing HCV Con1 subgenomic replicon (GS4.1 cells); experiment: HCV replicon assay (NS5A ELISA); format: cell-based; details: Hepatitis C virus, Huh-7; GS4.1 cells, 72 hrs, NS5A ELISA; read-out: EC50
Outline: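 GS4.1 cells dosed 3 h after seeding with ten 2-fold dilutions from 75 μM, or single 15 μM, in 0.5% DMSO for 72 h at 37° C; NS5A measured by ELISA (A-236 antibody, OPD, A492). EC50 from four-parameter sigmoidal fit of % inhibition.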

[8] = system: HCV genotype 3a-specific NS5A gene within the 1b-replicon; experiment: Luciferase replicon assay, NS5A-intergenotypic stable cell line genotype 3a; format: cell-based; details: read-out: EC50 3a
H1a-luc or Zluc cells = experiment: Cytotoxicity evaluation in luciferase replicon cells (Cell Titer 96 AQueous One); format: cell-based, human; details: Table 1B, cellular viability
Experimental: as §1

For `COC(=O)N[C@H](C(=O)N1CCC[C@H]1c1ncc(-c2ccc(-c3csc4c(-c5cnc([C@@H]6CCCN6C(=O)[C@@H](NC(=O)OC)C(C)C)[nH]5)csc34)cc2)[nH]1)C(C)C` [Compound A15, [(S)-1-((S)-2-{4-[4-(6-{2-[(S)-1-((S)-2-methoxycarbonylamino-3-methyl-butyryl)-pyrrolidin-2-yl]-3H-imidazol-4-yl}-thieno[3,2-b]thiophen-3-yl)-phenyl]-1H-imidazol-2-yl}-pyrrolidine-1-carbonyl)-2-methyl-propyl]-carbamic acid methyl ester], the EC50 ([1]; Hepatitis C virus) was < 0.1 nM, the CC50 at 72 h [2] was 10000 to 75000 nM and the EC50 ([3]; Hepatitis C virus, 72 h) was < 0.1 nM. The EC50 ([4]; Hepatitis C virus) was < 0.1 nM, the CC50 [5] was 10000 to 75000 nM and the EC50 [6] was < 0.1 nM. For the same compound, the EC50 [7] was < 1 nM and the EC50 ([8]; Hepatitis C virus) was 0.1 to 1 nM.
For `COC(=O)N[C@H](C(=O)N1CCC[C@H]1c1nc2ccc(-c3csc4c(C#Cc5cnc([C@@H]6CCCN6C(=O)[C@H](NC(=O)OC)c6ccccc6)[nH]5)csc34)cc2[nH]1)C(C)C` [Compound A206], the EC50 ([1]; genotype 2a) was < 0.1 nM, the CC50 (H1a-luc or Zluc cells) was > 75000 nM and the EC50 ([3]; genotype 1b, luciferase replicon, 72 hours) was < 0.1 nM. The EC50 ([4]; genotype 4a) was < 0.1 nM and the EC50 ([8]; genotype 3a) was < 0.1 nM.
